Reference: patent US20100048604A1, “Ligands for Aldoketoreductases” (priority 2004, published 2010)
Residue numbers refer to the chain shown, from its start.

How the values were obtained:
Format in all cases: biochemical
[1] = target: T1, AKR1C1 (Homo sapiens, UniProt Q04828); assay: Steady state kinetic parameters of fluorogenic substrates with purified AKR1C isozymes; design: key: no activity = 10 μg enzyme produced less than 0.1 nmol product per min (determined fluorimetrically); settings: isozyme 1C1; 10 μg enzyme, fluorimetric
T1 construct: gift of the Penning lab (University of Pennsylvania School of Medicine)
T1 sequence (Q04828 1-323): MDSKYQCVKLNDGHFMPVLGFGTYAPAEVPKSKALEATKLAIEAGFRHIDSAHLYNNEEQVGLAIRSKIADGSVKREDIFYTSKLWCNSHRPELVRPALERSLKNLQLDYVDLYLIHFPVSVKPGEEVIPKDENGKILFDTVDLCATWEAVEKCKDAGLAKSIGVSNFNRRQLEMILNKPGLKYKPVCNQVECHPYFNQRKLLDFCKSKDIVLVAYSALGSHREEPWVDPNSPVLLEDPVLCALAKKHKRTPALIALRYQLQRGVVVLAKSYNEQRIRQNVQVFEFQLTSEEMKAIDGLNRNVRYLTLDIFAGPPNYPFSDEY
Text: (§1) AKR1C2 and AKR1C3 Selective Probes: Probes (5a-5i) were examined as substrates for the four purified human HSD isozymes (AKR1C1-AKR1C4) under standard assay conditions [catalytic quantities of enzyme, an excess of cofactor (NADPH)]. The initial reaction rates were used to derive standard kinetic parameters (kcat and Km, Materials and Methods).
(§2) Substrate tolerance of AKR1Cs: Isozyme Activity with 5a-5i: Activity of the second generation of fluorogenic substrates with the AKR1C isozymes was determined as follows. To a STARNA semi-micro fluorimeter cell (with 4 polished windows) was added 100 μL of 1 M potassium phosphate buffer (pH 6), 840 μL doubly deionized water, and 20 μL of 12.5 mM NADPH. After mixing the aqueous components thoroughly, 20 μL of acetonitrile was added as a cosolvent and mixed well. 20 μL of 2.5 mM second generation fluorogenic ketone in acetonitrile (5a-5i) was then added and mixed. 4 μL of undiluted AKR1C (provided generously by the Penning lab at concentrations of 2.5 mg/mL) were then added to the cuvette for a total of 10 μg purified enzyme in the 1 mL assay volume. Fluorescence arising from the respective alcohol reduction product was then monitored over the course of 5-10 minutes.
(§3) Binding constant and catalytic rates (Km and kcat) of the second generation of fluorogenic substrates was determined as follows. To a STARNA semi-micro fluorometer cell (with 4 polished windows) was added 100 μL of 1 M potassium phosphate buffer (pH 6), 840 μL doubly deionized water, and 20 AL of 12.5 mM NADPH. After mixing the aqueous components thoroughly, 20 μL of acetonitrile was added as a cosolvent and mixed well. 20 μL of the second generation fluorogenic ketone (5a-5i) was then added and mixed to achieve assay concentrations of 5Km to Km/5. To initiate the reduction, 2 or 4 μL of diluted AKR1C (1:2 to 1:100, depending on the kinetics of a particular isozyme's reduction of a substrate) was then added to the cuvette. Fluorescence arising from the respective alcohol reduction product was then monitored over the course of 3 minutes (Excitation and emission band pass slits both at 4 nm, lamp 700 V, λexc 410 nm, λem 510). The rate of product formation, expressed in units of nanomoles per minute, were calculated according to previously published procedures (Wierzchowski, J.; Dafeldecker, W. P.; Holmquist, B.; Vallee, B. L. Anal. Biochem. 1989, 178, 57-62):
(§4) initial rate=[nst×(Ft−F0)/(Fst)]/t (1)
(§5) where Ft and F0 represent the fluorescence at times t and 0 minutes, nst is the nanomoles of product in a known concentration of product, and Fst is the fluorescence resulting from nst of product. Kinetic parameters were approximated by GraFit (Erithacus Software, Surrey, UK) nonlinear regression analysis program to fit the untransformed data to a hyperbolic function as originally described (Wierzchowski, J.; Dafeldecker, W. P.; Holmquist, B.; Vallee, B. L. Anal. Biochem. 1989, 178, 57-62). Reported enzymatic kinetic parameters are the average of three independent determinations from three different preparations of substrate and enzyme.

[2] = target: T2, AKR1C3 (Homo sapiens, UniProt P42330); assay: as above; settings: isozyme 1C3, fluorimetric; for activity as substrate (product formation): 10 μg enzyme; for Kcat / Km: potassium phosphate buffer pH 6, NADPH
T2 construct: gift of Professor Trevor Penning (University of Pennsylvania School of Medicine)
T2 sequence (P42330 1-323): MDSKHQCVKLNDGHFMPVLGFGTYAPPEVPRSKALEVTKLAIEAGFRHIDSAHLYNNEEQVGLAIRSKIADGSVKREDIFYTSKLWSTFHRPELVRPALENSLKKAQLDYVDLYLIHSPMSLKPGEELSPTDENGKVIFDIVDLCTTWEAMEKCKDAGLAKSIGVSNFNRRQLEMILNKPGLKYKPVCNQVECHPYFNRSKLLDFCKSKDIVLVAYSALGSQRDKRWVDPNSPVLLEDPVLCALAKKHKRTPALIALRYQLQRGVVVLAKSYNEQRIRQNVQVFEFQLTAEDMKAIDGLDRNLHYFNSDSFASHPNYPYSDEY
Experimental: The initial reaction rates were used to derive standard kinetic parameters (kcat and Km, Materials and Methods).
as §2, with “To a STARNA semi-micro fluorimeter cell (with 4 polished windows) was added 100 μL of 1 M potassium phosphate buffer (pH 6), 840 μL doubly deionized water, and 20 μL of 12.5 mM NADPH.” left out, “20 μL of 2.5 mM second generation fluorogenic ketone in acetonitrile (5a-5i) was then added and mixed.” left out
Binding constant and catalytic rates (Km and kcat) of the second generation of fluorogenic substrates was determined as follows. […] After mixing the aqueous components thoroughly, 20 μL of acetonitrile was added as a cosolvent and mixed well. […] To initiate the reduction, 2 or 4 μL of diluted AKR1C (1:2 to 1:100, depending on the kinetics of a particular isozyme's reduction of a substrate) was then added to the cuvette. Fluorescence arising from the respective alcohol reduction product was then monitored over the course of 3 minutes (Excitation and emission band pass slits both at 4 nm, lamp 700 V, λexc 410 nm, λem 510).
as §4
where Ft and F0 represent the fluorescence at times t and 0 minutes, nst is the nanomoles of product in a known concentration of product, and Fst is the fluorescence resulting from nst of product. […] Reported enzymatic kinetic parameters are the average of three independent determinations from three different preparations of substrate and enzyme.

[3] = target: T3, AKR1C2 (Homo sapiens, UniProt P52895); assay: as above; design: key to activity as substrate (product formation): no activity = 10 μg enzyme produced less than 0.1 nmol product per min (determined fluorimetrically); settings: isozyme 1C2, fluorimetric; for activity as substrate (product formation): 10 μg enzyme
T3 construct: gift of the Penning lab (University of Pennsylvania School of Medicine)
T3 sequence (P52895 1-323): T1 sequence (Q04828 1-323) with T38V, R47H, L54V, C87S, V151M, R170H, Q172L
Text: as §1, §2, §3, §4, §5

[4] = target: T4, AKR1C4 (Homo sapiens, UniProt P17516); assay: as above; design: key to activity as substrate (product formation): no activity = 10 μg enzyme produced less than 0.1 nmol product per min (determined fluorimetrically); settings: isozyme 1C4, fluorimetric; for activity as substrate (product formation): 10 μg enzyme; for Kcat / Km: potassium phosphate buffer pH 6, NADPH
T4 construct: gift of the Penning lab (University of Pennsylvania School of Medicine)
T4 sequence (P17516 1-323): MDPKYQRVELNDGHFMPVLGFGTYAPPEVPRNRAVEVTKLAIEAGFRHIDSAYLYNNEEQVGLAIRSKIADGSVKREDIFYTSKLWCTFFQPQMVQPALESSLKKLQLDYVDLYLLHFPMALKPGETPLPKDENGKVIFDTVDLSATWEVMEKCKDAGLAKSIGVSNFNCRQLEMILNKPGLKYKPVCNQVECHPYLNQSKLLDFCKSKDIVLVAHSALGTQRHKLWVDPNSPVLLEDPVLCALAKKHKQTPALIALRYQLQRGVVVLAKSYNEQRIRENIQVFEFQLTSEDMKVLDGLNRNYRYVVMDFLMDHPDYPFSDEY
Text: as §1, §2, §3, §4, §5

[5] = target: T2, AKR1C3; assay: Determination of kinetic parameters for AKR1C3 (fluorogenic substrate 5); settings: Type 2 isozyme of 3α-HSD (AKR 1C3)
Experimental: Whether the activity of human enzymes may be imaged by probe 5 was investigated. Type 2 isozyme of 3α-HSD (AKR 1C3) was selected for this study owing to its important physiological role.
Fluorogenic substrate 5 reduction was monitored on a Hitachi F-4500 fluorimeter in Starna quartz cuvettes fluorometrically in 1 mL systems containing 100 mM potassium phosphate pH 6.0 containing excess of NADPH cofactor (250 μM) and various amounts of the substrate (0.1953-50 μM) dissolved in 4% acetonitrile. […] Cuvettes were mixed thoroughly after addition of cofactor, cosolvent, and substrate. Reactions were initiated by the addition of 4 μL of dilute AKR1C3 (115 μg/mL) and were corrected for nonenzymatic rates. All reactions were followed by monitoring the increase in fluorescence of the product alcohol for 5 minutes at λem 510 nm with λex 440 nm (Excitation and emission band pass slits both at 2.5 nm, lamp 900 V) at 37° C. The initial velocities, expressed in units of nanomoles per minute, were calculated according to previously published procedures (Wierzchowski, J.; Dafeldecker, W. P.; Holmquist, B.; Vallee, B. L. Anal. Biochem. 1989, 178, 57-62): initial rate=[nst×(Ft−F0)/(Fst)]/t where Ft and F0 represent the fluorescence at time t and 0, nst is the nanomoles of the product standard, and Fst is the fluorescence resulting from nst of product. Kinetic constants were approximated using the GraFit (Erithacus Software, Surrey, UK) non-linear regression analysis program to fit the untransformed data to a hyperbolic function as originally described (Wilkinson, G. N. Biochem. J. 1961, 80, 324-332), yielding estimated values of kcat, Km, and their associated standard errors.

SMILES	activity as substrate (product formation) [1]	activity as substrate (product formation) [2]	activity as substrate (product formation) [3]	activity as substrate (product formation) [4]	Kcat [2] [s⁻¹]	Km [2] [µM]	Kcat [4] [s⁻¹]	Km [4] [µM]	Kcat ([3]; potassium phosphate buffer pH 6, NADPH) [s⁻¹]	Kcat [5] [s⁻¹]	Km [5] [µM]
CC(C)C(=O)c1cc(=O)oc2c3c4c(cc12)CCCN4CCC3	no activity	no activity	no activity	no activity							
O=C(c1cc(=O)oc2c3c4c(cc12)CCCN4CCC3)C1CCCCC1	no activity	no activity	no activity	no activity							
O=C1CCc2c1c1cc3c4c(c1oc2=O)CCCN4CCC3				no activity	0.12	0.13					
CC(=O)c1cc(=O)oc2cc(N(C)C)ccc12					0.145	4.3	0.035	14.8			
CC(=O)c1cc(=O)oc2cc3c(cc12)CCCN3	no activity			no activity	0.155	4.3			0.00983		
CC(=O)c1cc(=O)oc2c3c(ccc12)NCCC3					0.115	8.3	0.0233	40.2			
C[C@]12CCC(=O)C[C@@H]1CC[C@@H]1[C@@H]2CC[C@]2(C)[C@@H](O)CC[C@@H]12 [5α-dihydrotestosterone, reference compound]					0.00417	26				0.00417	26
CC(=O)c1cc(=O)oc2c3c4c(cc12)CCCN4CCC3 [drawing 207]					0.125	1.1	0.00633	20.6			
O=C(c1ccccc1)c1cc(=O)oc2c3c4c(cc12)CCCN4CCC3 [drawing 210]					0.09	0.051	0.0103	6.2			
CC(=O)c1c(Br)c(=O)oc2c3c4c(cc12)CCCN4CCC3 [drawing 212]	no activity	no activity	no activity	no activity							
CC(=O)c1c(-c2ccccc2)c(=O)oc2c3c4c(cc12)CCCN4CCC3 [drawing 213]	no activity	no activity	no activity	no activity							
